pEC50: −log10 of the molar value. Where “and” joins values, the source holds several entries; their conditions need not be identical. Identical values can stand only once.
target: NAMPT enzyme (Homo sapiens (Human), UniProt P43490); assay: Enzyme Assay and NMN Detection (NAMPT reaction, fluorescence detection of NMN); type: biochemical; details: Table B-2; NAMPT activation, NMN formation
Procedure: NAMPT reaction was performed in 50 mM HEPES, pH 7.5, containing 5 mM MgCl2, 0.1% Prionex, 0.005% Tween 20, and 1 mM TCEP at room temperature in Greiner 384-well black polypropylene plates. The concentration of substrates and enzymes in the final assay were as follows: ATP (120 uM), nicotinamide (5 uM), phosphoribosylpyrophosphate (6.25 uM), NAMPT enzyme (16 nM), pyrophosphatase (0.04 U/ml) in the final reaction volume 6 uL. Following 2 h incubation the reaction was stopped by addition 2.5 ul 20% acetophenone in dimethyl sulfoxide (DMSO) and 2.5 ul 2 MKOH. Plates were centrifuges and added with 10.5 ul 88% formic acid. The fluorescence (ex380/em460) was measured following another short incubation and 30 min incubation. The increased concentration of NMN was determined from a calibration curve obtained at the time of experiment.

NAMPT enzyme, sequence (P43490 whole entry, species assumed): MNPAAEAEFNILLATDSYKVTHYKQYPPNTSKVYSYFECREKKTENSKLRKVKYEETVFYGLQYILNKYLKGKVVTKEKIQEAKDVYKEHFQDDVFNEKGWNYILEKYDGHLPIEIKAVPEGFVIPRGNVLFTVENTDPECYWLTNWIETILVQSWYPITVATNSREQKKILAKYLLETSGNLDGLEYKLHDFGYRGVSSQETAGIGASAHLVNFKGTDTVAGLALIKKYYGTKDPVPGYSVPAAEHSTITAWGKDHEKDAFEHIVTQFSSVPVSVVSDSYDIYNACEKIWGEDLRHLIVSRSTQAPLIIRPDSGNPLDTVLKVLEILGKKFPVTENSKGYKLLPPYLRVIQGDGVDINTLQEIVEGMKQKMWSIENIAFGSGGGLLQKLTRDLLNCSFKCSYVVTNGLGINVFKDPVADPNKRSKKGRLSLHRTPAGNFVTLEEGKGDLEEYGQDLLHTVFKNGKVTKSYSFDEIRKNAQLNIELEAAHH

`O=C(NCc1ccncc1)Nc1ccc(NS(=O)(=O)Cc2ccccc2Cl)cc1` [1-(2-chlorophenyl)-N-(4-(3-(pyridin-4-ylmethyl)ureido)phenyl)methanesulfonamide] and `O=C(NCc1ccncc1)Nc1ccc(NS(=O)(=O)Cc2cccc(Cl)c2)cc1` [1-(3-chlorophenyl)-N-(4-(3-(pyridin-4-ylmethyl)ureido)phenyl)methanesulfonamide] cannot be ordered by pEC50: > 7.00 for the first, > 7.00 for the second.

First: O=C(NCc1ccncc1)Nc1cccc(S(=O)(=O)N2CCOCC2)c1 [1-(3-(morpholinosulfonyl)phenyl)-3-(pyridin-4-ylmethyl)urea]
Second: CN1CCN(C(=O)c2ccc(NC(=O)NCc3ccncc3)cc2)CC1 [1-(4-(4-Methylpiperazine-1-carbonyl)phenyl)-3-(pyridin-4-ylmethyl)urea]
The pEC50 of the first is lower: < 4.70 for the first, 4.70 to 5.30 for the second.

In the case of `O=C(NCc1ccncc1)Nc1ccc(C(=O)N2CC3CCC(C2)O3)cc1` [1-(4-(8-Oxa-3-azabicyclo[3.2.1]octane-3-carbonyl)phenyl)-3-(pyridin-4-ylmethyl)urea], the pEC50 was 5.70 to 7.00.

same assay, conditions: Table B-4; NAMPT activation, NMN formation

`O=C(NCc1cn[nH]c1)Nc1ccc(S(=O)(=O)c2ccccc2-c2cccnc2)cc1` [1-(1H-Pyrazol-4-ylmethyl)-3-[4-(2-pyridin-3-yl-benzenesulfonyl)-phenyl]-urea] and `O=C(NCc1cn[nH]c1)Nc1ccc(S(=O)(=O)c2ccccc2-c2ccncc2)cc1` [1-(1H-Pyrazol-4-ylmethyl)-3-[4-(2-pyridin-4-yl-benzenesulfonyl)-phenyl]-urea] fall in the same range of pEC50: 5.70 to 7.00 for the first, 5.70 to 7.00 for the second.

First: O=C(NCc1cn[nH]c1)Nc1ccc(S(=O)(=O)c2ccccc2OC(F)(F)F)cc1 [1-(1H-Pyrazol-4-ylmethyl)-3-[4-(2-trifluoromethoxy-benzenesulfonyl)-phenyl]-urea]
Second: O=C(NCc1cn[nH]c1)Nc1ccc(S(=O)(=O)c2ccccc2C(F)(F)F)cc1 [1-(1H-Pyrazol-4-ylmethyl)-3-[4-(2-trifluoromethyl-benzenesulfonyl)-phenyl]-urea]
The pEC50 of the first is higher: > 7.00 for the first, 5.70 to 7.00 for the second. The first is the more potent here.

First: O=C(NCc1cn[nH]c1)Nc1ccc(S(=O)(=O)c2cccc(OC(F)(F)F)c2)cc1 [1-(1H-Pyrazol-4-ylmethyl)-3-[4-(3-trifluoromethoxy-benzenesulfonyl)-phenyl]-urea]
Second: O=C(NCc1cn[nH]c1)Nc1ccc(S(=O)(=O)c2ccc(OC(F)(F)F)cc2)cc1 [1-(1H-Pyrazol-4-ylmethyl)-3-[4-(4-trifluoromethoxy-benzenesulfonyl)-phenyl]-urea]
The pEC50 of the first is higher: > 7.00 for the first, 5.70 to 7.00 for the second. The first is the more potent here.

First: Cc1cccc(-c2csc(Nc3ccc(NC(=O)NCc4cn[nH]c4)cc3)n2)c1 [1-(1H-Pyrazol-4-ylmethyl)-3-[4-(4-m-tolyl-thiazol-2-ylamino)-phenyl]-urea]
Second: Cc1ccc(-c2csc(Nc3ccc(NC(=O)NCc4cn[nH]c4)cc3)n2)cc1 [1-(1H-Pyrazol-4-ylmethyl)-3-[4-(4-p-tolyl-thiazol-2-ylamino)-phenyl]-urea]
The pEC50 of the first is higher: 5.70 to 7.00 for the first, 5.30 to 5.70 for the second. The first is the more potent here.

First: Cc1ccccc1-c1csc(Nc2ccc(NC(=O)NCc3cn[nH]c3)cc2)n1 [1-(1H-Pyrazol-4-ylmethyl)-3-[4-(4-o-tolyl-thiazol-2-ylamino)-phenyl]-urea]
Second: Cc1ccccc1S(=O)(=O)c1ccc(NC(=O)NCc2cn[nH]c2)cc1 [1-(1H-Pyrazol-4-ylmethyl)-3-[4-(toluene-2-sulfonyl)-phenyl]-urea]
The pEC50 of the first is lower: 5.70 to 7.00 for the first, > 7.00 for the second. The second is the more potent here.

`O=C(NCc1cn[nH]c1)Nc1ccc(S(=O)(=O)c2cccnc2)cc1` [1-(1H-Pyrazol-4-ylmethyl)-3-[4-(pyridine-3-sulfonyl)-phenyl]-urea] and `Cc1cccc(S(=O)(=O)c2ccc(NC(=O)NCc3cn[nH]c3)cc2)c1` [1-(1H-Pyrazol-4-ylmethyl)-3-[4-(toluene-3-sulfonyl)-phenyl]-urea] fall in the same range of pEC50: 5.70 to 7.00 for the first, 5.70 to 7.00 for the second.

First: O=C(NCc1cn[nH]c1)Nc1ccc(S(=O)(=O)c2ncccn2)cc1 [1-(1H-Pyrazol-4-ylmethyl)-3-[4-(pyrimidine-2-sulfonyl)-phenyl]-urea]
Second: Cc1ccc(S(=O)(=O)c2ccc(NC(=O)NCc3cn[nH]c3)cc2)cc1 [1-(1H-Pyrazol-4-ylmethyl)-3-[4-(toluene-4-sulfonyl)-phenyl]-urea]
The pEC50 of the first is lower: 5.30 to 5.70 for the first, 5.70 to 7.00 for the second.

`O=C(NCc1cn[nH]c1)Nc1ccc(S(=O)(=O)C2CCN(C3CCOCC3)CC2)cc1` [1-(1H-Pyrazol-4-ylmethyl)-3-{4-[1-(tetrahydro-pyran-4-yl)-piperidine-4-sulfonyl]-phenyl}-urea] showed a pEC50 of 5.70 to 7.00.

With `O=C(NCc1cn[nH]c1)Nc1ccc(S(=O)(=O)c2nccs2)cc1` [1-(1H-Pyrazol-4-ylmethyl)-3-[4-(thiazole-2-sulfonyl)-phenyl]-urea] the pEC50 was 5.30 to 5.70 and 5.70 to 7.00.

same assay, conditions: Table B-5; NAMPT activation, NMN formation

`O=C(NCc1cnco1)Nc1ccc(NS(=O)(=O)Cc2ccccc2Cl)cc1` [1-(2-Chlorophenyl)-N-(4-(3-(oxazol-5-ylmethyl)ureido)phenyl)methanesulfonamide] and `O=C(NCc1cnco1)Nc1ccc(NS(=O)(=O)Cc2cccc(Cl)c2)cc1` [1-(3-Chlorophenyl)-N-(4-(3-(oxazol-5-ylmethyl)ureido)phenyl)methanesulfonamide] cannot be ordered by pEC50: > 7.00 for the first, > 7.00 for the second.

`O=C(NCc1cnco1)Nc1ccc(NS(=O)(=O)Cc2ccc(Cl)c(Cl)c2)cc1` [1-(3,4-Dichlorophenyl)-N-(4-(3-(oxazol-5-ylmethyl)ureido)phenyl)methanesulfonamide] and `O=C(NCc1cnco1)Nc1ccc(S(=O)(=O)c2cccc(Cl)c2)cc1` [1-(4-((3-Chlorophenyl)sulfonyl)phenyl)-3-(oxazol-5-ylmethyl)urea] cannot be ordered by pEC50: > 7.00 for the first, > 7.00 for the second.

First: Cc1ccc2c(c1)c(-c1ccc(NC(=O)NCc3cnco3)cc1)nn2C [1-(4-(1,5-Dimethyl-1H-indazol-3-yl)phenyl)-3-(oxazol-5-ylmethyl)urea]
Second: Cn1nc(-c2ccc(NC(=O)NCc3cnco3)cc2)c2cc(Cl)ccc21 [1-(4-(5-Chloro-1-methyl-1H-indazol-3-yl)phenyl)-3-(oxazol-5-ylmethyl)urea]
The pEC50 of the first is lower: 4.70 to 5.30 for the first, 5.70 to 7.00 for the second. The second is the more potent here.

First: Cc1cccc2c(-c3ccc(NC(=O)NCc4cnco4)cc3)nn(C)c12 [1-(4-(1,7-Dimethyl-1H-indazol-3-yl)phenyl)-3-(oxazol-5-ylmethyl)urea]
Second: O=C(NCc1cnco1)Nc1ccc(-c2ncc(Cc3ccccc3)s2)cc1 [1-(4-(5-Benzylthiazol-2-yl)phenyl)-3-(oxazol-5-ylmethyl)urea]
The pEC50 of the first is higher: 5.30 to 5.70 for the first, 4.70 to 5.30 for the second.

`O=C(NCc1cnco1)Nc1ccc(S(=O)(=O)c2cn[nH]c2)cc1` [1-(4-((1H-pyrazol-4-yl)sulfonyl)phenyl)-3-(oxazol-5-ylmethyl)urea] and `O=C(NCc1cnco1)Nc1ccc(S(=O)(=O)c2cccc(F)c2)cc1` [1-(4-((3-Fluorophenyl)sulfonyl)phenyl)-3-(oxazol-5-ylmethyl)urea] fall in the same range of pEC50: 5.70 to 7.00 for the first, 5.70 to 7.00 for the second.

`O=C(NCc1cnco1)Nc1ccc(S(=O)(=O)c2ccccc2F)cc1` [1-(4-((2-Fluorophenyl)sulfonyl)phenyl)-3-(oxazol-5-ylmethyl)urea] and `COc1ccccc1S(=O)(=O)c1ccc(NC(=O)NCc2cnco2)cc1` [1-(4-((2-Methoxyphenyl)sulfonyl)phenyl)-3-(oxazol-5-ylmethyl)urea] fall in the same range of pEC50: 5.70 to 7.00 for the first, 5.70 to 7.00 for the second.

same assay, conditions: Table B-6; NAMPT activation, NMN formation

`O=C(NCc1cn[nH]c1)Nc1ccc(S(=O)(=O)C2CCN(C3CCOCC3)CC2)cc1` [1-(1H-Pyrazol-4-ylmethyl)-3-{4-[1-(tetrahydro-pyran-4-yl)-piperidine-4-sulfonyl]-phenyl}-urea] and `O=C(NCc1ccncc1)Nc1ccc(S(=O)(=O)c2cn[nH]c2)cc1` [1-(4-((1H-pyrazol-4-yl)sulfonyl)phenyl)-3-(pyridin-4-ylmethyl)urea] fall in the same range of pEC50: 5.70 to 7.00 for the first, 5.70 to 7.00 for the second.

`N#Cc1cc(NC(=O)NCc2ccncc2)ccc1S(=O)(=O)c1cc(F)cc(F)c1` [1-(3-Cyano-4-((3,5-difluorophenyl)sulfonyl)phenyl)-3-(pyridin-4-ylmethyl)urea] and `O=C(NCc1ccncc1)Nc1ccc(S(=O)(=O)c2ccccc2F)cc1` [1-(4-((2-Fluorophenyl)sulfonyl)phenyl)-3-(pyridin-4-ylmethyl)urea] fall in the same range of pEC50: 5.70 to 7.00 for the first, 5.70 to 7.00 for the second.

`Cc1cccc2c1c(-c1ccc(NC(=O)NCc3ccncc3)cc1)nn2C` [1-(4-(1,4-Dimethyl-1H-indazol-3-yl)phenyl)-3-(pyridin-4-ylmethyl)urea] and `Cc1cccc2c(-c3ccc(NC(=O)NCc4ccncc4)cc3)nn(C)c12` [1-(4-(1,7-Dimethyl-1H-indazol-3-yl)phenyl)-3-(pyridin-4-ylmethyl)urea] fall in the same range of pEC50: 5.70 to 7.00 for the first, 5.70 to 7.00 for the second.

Compared with `Cc1ccc2c(c1)c(-c1ccc(NC(=O)NCc3ccncc3)cc1)nn2C` [1-(4-(1,5-Dimethyl-1H-indazol-3-yl)phenyl)-3-(pyridin-4-ylmethyl)urea], `Cn1nc(-c2ccc(NC(=O)NCc3ccncc3)cc2)c2cc(Cl)ccc21` [1-(4-(5-Chloro-1-methyl-1H-indazol-3-yl)phenyl)-3-(pyridin-4-ylmethyl)urea] is lower in pEC50: 5.70 to 7.00 for the first, 5.30 to 5.70 for the second. The first is the more potent here.

First: Cn1nc(-c2ccc(NC(=O)NCc3ccncc3)cc2)c2ccncc21 [1-(4-(1-Methyl-1H-pyrazolo[3,4-c]pyridin-3-yl)phenyl)-3-(pyridin-4-ylmethyl)urea]
Second: O=C(NCc1ccncc1)Nc1ccc(-c2ncc(Cc3ccccc3)s2)cc1 [1-(4-(5-Benzylthiazol-2-yl)phenyl)-3-(pyridin-4-ylmethyl)urea]
The pEC50 of the first is higher: 5.70 to 7.00 for the first, 4.70 to 5.30 for the second. The first is the more potent here.

First: COc1ccc(-c2ccccc2S(=O)(=O)c2ccc(NC(=O)NCc3ccncc3)cc2)cn1 [1-(4-((2-(6-Methoxypyridin-3-yl)phenyl)sulfonyl)phenyl)-3-(pyridin-4-ylmethyl)urea]
Second: Cc1ccccc1-c1ccccc1S(=O)(=O)c1ccc(NC(=O)NCc2ccncc2)cc1 [1-(4-((2′-Methyl-[1,l′-biphenyl]-2-yl)sulfonyl)phenyl)-3-(pyridin-4-ylmethyl)urea]
The pEC50 of the first is lower: 4.70 to 5.30 for the first, 5.70 to 7.00 for the second.

Work on `O=C(NCc1ccncc1)Nc1ccc(S(=O)(=O)c2ccccc2-c2ccccc2Cl)cc1` [1-(4-((2′-Chloro-[1,l′-biphenyl]-2-yl)sulfonyl)phenyl)-3-(pyridin-4-ylmethyl)urea] yielded a pEC50 of 5.70 to 7.00.
